Experimental data published in the supplement of paper PMC10307832.

Legend:
Assay in all cases: relative viability (nuclei count vs DMSO), 5 days (fraction); higher = more cells survive
[1] = compound: C1=CC=C(C(=C1)C2=CC=C(C=C2)C3=CSC4=C3C(=C(C(=O)N4)C#N)O)O + N=C(N)NC(=N)NCCc1ccccc1 [Phenformin] (partner 250 µM)
How it was run: (§1)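 Cells from lung cancer lines were seeded into 1536-well plates and, one day later, dosed by pin tool. Treatments were either a single drug or a fixed dose of an anchor drug with five library-drug doses (not always all listed) in √10 steps. After 5 days, nuclei were stained in a one-step fixation (final 0.05% Triton X-100, 1% formaldehyde, 1 ug/ml Hoechst) and counted on 4× images, and relative viability is the treated-to-vehicle nuclei ratio, as the median of duplicate plates.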

[2] = compound: C1=CC=C(C(=C1)C2=CC=C(C=C2)C3=CSC4=C3C(=C(C(=O)N4)C#N)O)O + Nc1ncn([C@H]2C[C@H](O)[C@@H](CO)O2)c(=O)n1 [Decitabine] (partner 2 µM)
How it was run: as §1

[3] = compound: CC1=CN2C(=O)C=C(N=C2C(=C1)C(C)NC3=CC=CC=C3)N4CCOCC4 [TGX 221] + Cc1nc(NC(=O)N2CCC[C@H]2C(N)=O)sc1-c1ccnc(C(C)(C)C(F)(F)F)c1 [Alpelisib] (partner 2 µM)
How it was run: as §1

[4] = compound: O=C(CCCCCCNC(=O)c1cnc(N(c2ccccc2)c2ccccc2)nc1)NO [Ricolinostat] + CS(=O)(=O)CCNCc1ccc(-c2ccc3ncnc(Nc4ccc(OCc5cccc(F)c5)c(Cl)c4)c3c2)o1 [Lapatinib] (partner 2 µM)
How it was run: as §1

## NCI-H322M
[1]; first compound 0.08 µM
  relative viability: 0.69
[1]; first compound 0.253 µM
  relative viability: 0.751
[1]; first compound 0.8 µM
  relative viability: 0.776
[1]; first compound 2.53 µM
  relative viability: 0.871
[1]; first compound 8 µM
  relative viability: 0.865
[2]; first compound 0.08 µM
  relative viability: 0.679
[2]; first compound 0.253 µM
  relative viability: 0.667
[2]; first compound 0.8 µM
  relative viability: 0.747
[2]; first compound 2.53 µM
  relative viability: 0.69
[2]; first compound 8 µM
  relative viability: 0.731
[3]; first compound 0.08 µM
  relative viability: 0.8
[3]; first compound 0.253 µM
  relative viability: 0.64
[3]; first compound 0.8 µM
  relative viability: 0.64
[3]; first compound 2.53 µM
  relative viability: 0.687
[3]; first compound 8 µM
  relative viability: 0.505
[4]; first compound 0.253 µM
  relative viability: 0.494
[4]; first compound 0.8 µM
  relative viability: 0.624
[4]; first compound 2.53 µM
  relative viability: 0.66

## NCI-H358
[1]; first compound 0.08 µM
  relative viability: 0.25
[1]; first compound 0.253 µM
  relative viability: 0.39
[1]; first compound 0.8 µM
  relative viability: 0.373
[1]; first compound 2.53 µM
  relative viability: 0.353
[1]; first compound 8 µM
  relative viability: 0.283
[2]; first compound 0.08 µM
  relative viability: 0.205
[2]; first compound 0.253 µM
  relative viability: 0.23
[2]; first compound 0.8 µM
  relative viability: 0.205
[2]; first compound 2.53 µM
  relative viability: 0.2
[2]; first compound 8 µM
  relative viability: 0.177
[3]; first compound 0.08 µM
  relative viability: 0.723
[3]; first compound 0.253 µM
  relative viability: 0.75
[3]; first compound 0.8 µM
  relative viability: 0.828
[3]; first compound 2.53 µM
  relative viability: 0.85
[3]; first compound 8 µM
  relative viability: 0.726
[4]; first compound 0.08 µM
  relative viability: 0.311
[4]; first compound 0.253 µM
  relative viability: 0.505
[4]; first compound 0.8 µM
  relative viability: 0.501
[4]; first compound 2.53 µM
  relative viability: 0.519

## NCI-H460
[1]; first compound 0.08 µM
  relative viability: 0.165
[1]; first compound 0.253 µM
  relative viability: 0.557
[1]; first compound 0.8 µM
  relative viability: 0.427
[1]; first compound 2.53 µM
  relative viability: 0.561
[1]; first compound 8 µM
  relative viability: 0.107
[2]; first compound 0.08 µM
  relative viability: 0.387
[2]; first compound 0.253 µM
  relative viability: 0.437
[2]; first compound 0.8 µM
  relative viability: 0.531
[2]; first compound 2.53 µM
  relative viability: 0.5
[2]; first compound 8 µM
  relative viability: 0.398
[3]; first compound 0.08 µM
  relative viability: 0.386
[3]; first compound 0.253 µM
  relative viability: 0.295
[3]; first compound 0.8 µM
  relative viability: 0.274
[3]; first compound 2.53 µM
  relative viability: 0.167
[3]; first compound 8 µM
  relative viability: 0.137
[4]; first compound 0.08 µM
  relative viability: 0.844
[4]; first compound 0.253 µM
  relative viability: 0.91
[4]; first compound 0.8 µM
  relative viability: 1.02
[4]; first compound 2.53 µM
  relative viability: 0.764

## NCI-H520
[1]; first compound 0.08 µM
  relative viability: 0.254
[1]; first compound 0.253 µM
  relative viability: 0.535
[1]; first compound 0.8 µM
  relative viability: 0.757
[1]; first compound 2.53 µM
  relative viability: 0.542
[1]; first compound 8 µM
  relative viability: 0.467
[2]; first compound 0.08 µM
  relative viability: 0.476
[2]; first compound 0.253 µM
  relative viability: 0.476
[2]; first compound 0.8 µM
  relative viability: 0.559
[2]; first compound 2.53 µM
  relative viability: 0.509
[2]; first compound 8 µM
  relative viability: 0.462
[3]; first compound 0.08 µM
  relative viability: 0.696
[3]; first compound 0.253 µM
  relative viability: 0.45
[3]; first compound 0.8 µM
  relative viability: 0.42
[3]; first compound 2.53 µM
  relative viability: 0.243
[3]; first compound 8 µM
  relative viability: 0.254
[4]; first compound 0.253 µM
  relative viability: 0.745
[4]; first compound 0.8 µM
  relative viability: 0.851
[4]; first compound 2.53 µM
  relative viability: 0.786

## NCI-H596
[1]; first compound 0.08 µM
  relative viability: 0.629
[1]; first compound 0.253 µM
  relative viability: 0.695
[1]; first compound 0.8 µM
  relative viability: 0.741
[1]; first compound 2.53 µM
  relative viability: 0.724
[1]; first compound 8 µM
  relative viability: 0.571
[2]; first compound 0.08 µM
  relative viability: 1.02
[2]; first compound 0.253 µM
  relative viability: 1.79
[2]; first compound 0.8 µM
  relative viability: 1.09
[2]; first compound 2.53 µM
  relative viability: 0.898
[2]; first compound 8 µM
  relative viability: 0.891
[3]; first compound 0.08 µM
  relative viability: 0.423
[3]; first compound 0.253 µM
  relative viability: 0.419
[3]; first compound 0.8 µM
  relative viability: 0.445
[3]; first compound 2.53 µM
  relative viability: 0.403
[3]; first compound 8 µM
  relative viability: 0.387
[4]; first compound 0.08 µM
  relative viability: 0.985
[4]; first compound 0.253 µM
  relative viability: 1.08
[4]; first compound 0.8 µM
  relative viability: 1
[4]; first compound 2.53 µM
  relative viability: 0.743

## NCI-H647
[1]; first compound 0.08 µM
  relative viability: 0.285
[1]; first compound 0.253 µM
  relative viability: 0.615
[1]; first compound 0.8 µM
  relative viability: 0.586
[1]; first compound 2.53 µM
  relative viability: 0.555
[1]; first compound 8 µM
  relative viability: 0.349
[2]; first compound 0.253 µM
  relative viability: 0.532
[2]; first compound 0.8 µM
  relative viability: 0.407
[2]; first compound 2.53 µM
  relative viability: 0.439
[2]; first compound 8 µM
  relative viability: 0.279
[3]; first compound 0.08 µM
  relative viability: 0.867
[3]; first compound 0.253 µM
  relative viability: 0.862
[3]; first compound 0.8 µM
  relative viability: 0.65
[3]; first compound 2.53 µM
  relative viability: 0.624
[3]; first compound 8 µM
  relative viability: 0.459
[4]; first compound 0.08 µM
  relative viability: 0.915
[4]; first compound 0.253 µM
  relative viability: 1.11
[4]; first compound 0.8 µM
  relative viability: 1.07
[4]; first compound 2.53 µM
  relative viability: 0.627

## NCI-H650
[1]; first compound 0.08 µM
  relative viability: 0.474
[1]; first compound 0.253 µM
  relative viability: 0.531
[1]; first compound 0.8 µM
  relative viability: 0.448
[1]; first compound 2.53 µM
  relative viability: 0.465
[1]; first compound 8 µM
  relative viability: 0.44
[2]; first compound 0.08 µM
  relative viability: 0.297
[2]; first compound 0.253 µM
  relative viability: 0.333
[2]; first compound 0.8 µM
  relative viability: 0.307
[2]; first compound 2.53 µM
  relative viability: 0.312
[2]; first compound 8 µM
  relative viability: 0.315
[3]; first compound 0.08 µM
  relative viability: 1.23
[3]; first compound 0.253 µM
  relative viability: 1.02
[3]; first compound 0.8 µM
  relative viability: 1.13
[3]; first compound 2.53 µM
  relative viability: 0.912
[3]; first compound 8 µM
  relative viability: 0.791
[4]; first compound 0.253 µM
  relative viability: 0.888
[4]; first compound 0.8 µM
  relative viability: 0.734
[4]; first compound 2.53 µM
  relative viability: 0.504

## NCI-H661
[1]; first compound 0.08 µM
  relative viability: 0.31
[1]; first compound 0.253 µM
  relative viability: 0.298
[1]; first compound 0.8 µM
  relative viability: 0.257
[1]; first compound 2.53 µM
  relative viability: 0.254
[1]; first compound 8 µM
  relative viability: 0.298
[2]; first compound 0.08 µM
  relative viability: 0.532
[2]; first compound 0.253 µM
  relative viability: 0.559
[2]; first compound 0.8 µM
  relative viability: 0.538
[2]; first compound 2.53 µM
  relative viability: 0.558
[2]; first compound 8 µM
  relative viability: 0.436
[3]; first compound 0.08 µM
  relative viability: 0.45
[3]; first compound 0.253 µM
  relative viability: 0.52
[3]; first compound 0.8 µM
  relative viability: 0.201
[3]; first compound 2.53 µM
  relative viability: 0.559
[3]; first compound 8 µM
  relative viability: 0.516
[4]; first compound 0.253 µM
  relative viability: 0.544
[4]; first compound 0.8 µM
  relative viability: 0.542
[4]; first compound 2.53 µM
  relative viability: 0.72

## NCI-H727
[1]; first compound 0.08 µM
  relative viability: 0.484
[1]; first compound 0.253 µM
  relative viability: 0.668
[1]; first compound 0.8 µM
  relative viability: 0.416
[1]; first compound 2.53 µM
  relative viability: 0.491
[1]; first compound 8 µM
  relative viability: 0.514
[2]; first compound 0.08 µM
  relative viability: 0.815
[2]; first compound 0.253 µM
  relative viability: 0.932
[2]; first compound 0.8 µM
  relative viability: 0.79
[2]; first compound 2.53 µM
  relative viability: 0.843
[2]; first compound 8 µM
  relative viability: 0.81
[3]; first compound 0.08 µM
  relative viability: 0.591
[3]; first compound 0.253 µM
  relative viability: 0.436
[3]; first compound 0.8 µM
  relative viability: 0.484
[3]; first compound 2.53 µM
  relative viability: 0.557
[3]; first compound 8 µM
  relative viability: 0.513
[4]; first compound 0.08 µM
  relative viability: 0.523
[4]; first compound 0.253 µM
  relative viability: 1.02
[4]; first compound 0.8 µM
  relative viability: 0.862
[4]; first compound 2.53 µM
  relative viability: 0.77
